Assay results: US20070015771A1, “Lonidamine analogs” (Threshold pharmaceuticals, Inc., priority 2004, published 2007)
Like-named read-outs stand apart in the source and are kept apart here.

How the values were obtained:
H460 cells = experiment: Antiproliferation assay (Alamar Blue), H460 cells; format: cell-based
Protocol: To determine the effect of lonidamine and analogs thereof on cell proliferation, the antiproliferative activity of these compounds was tested in a multi-well Alamar Blue based assay (at 2 h and 3 days). Cell growth in the presence and absence of the test compound (compounds 1-22) was compared, as measured by a fluorescence plate reader at excitation 550 nm and emission 590 nm (see Biosource International Inc., Tech Application Notes, Use of Alamar Blue in the measurement of Cell Viability and Toxicity, Determining IC50). H460 cells (ATCC HTB-177 ([…]), 4,000 cells/well/200 μl) and LNCap cells (ATCC CRL-1740, 6,000 cells/well/200 μl) were seeded in a 96 well plate in RPMI medium (Invitrogen Corporation, Carlsbad, Calif.). After 24 hours, these plates were divided into 3 groups—Control group, 2 h treatment group and 3 day treatment group. In the 2 h treatment group, after 2 h the cells were rinsed to remove the test compound and incubated for 3 days, followed by staining with AlamarBlue. The cells in the 3 day treatment group were incubated for 3 days, followed by staining with AlamarBlue. In the Control group, AlamarBlue was added to the plate at (i) day 0 and (ii) day 3 and measured to establish the control reading.

PWR-1E cells = experiment: Antiproliferation assay 3 days, PWR-1E cells (Example 49); format: cell-based; details: read-out: PWR1e cell line IC50
Protocol: (§1) To determine the effect of lonidamine analogs thereof on cell proliferation, the antiproliferative activity of these compounds was tested in a multi-well Alamar Blue based assay (at 3 days). Cell growth in the presence and absence of the test compound was compared, as measured by a fluoresence plate reader at excitation 550 nm and emission 590 nm (see Biosource International Inc., Tech Application Notes, Use of Alamar Blue in the measurement of Cell Viability and Toxity, Determining IC50). The following cell lines were tested: PWR-1E cells ((ATCC CRL-11611), 3500 cells/well/200 μl in Keratinocyte SFM medium (Gibco Products, Invitrogen Corporation, Carlsbad, Calif.)); DU-145 cells ((ATCC HTB-81), 4000 cells/well/200 μl in MEM Eagles medium (ATCC, Manassas, Va.)); PC3 cells ((ATCC CRL-1435), 4000 cells/200 μl in Modified HAM's F12 medium (ATCC, Manassas, Va.)); PNt2 cells ((Sigma-Aldrich, 95012613-1 VL), 4000 cells/well/200 μl in RPMI medium (Gibco Products, Invitrogen Corporation, Carlsbad, Calif.), BPH-1 ((DSMZ ACC-143), 4000 cells/well/200 μl in RPMI medium (Gibco Products, Invitrogen Corporation, Carlsbad, Calif), and NCI-H460 cells ((ATCC HTB-177), 4000 cells/well/200 μl in RPMI medium (Gibco Products, Invitrogen Corporation, Carlsbad, Calif.)). The cells were seeded in a 96 well plate in a medium specified above. After 24 hours, these plates were divided into 2 groups—Control group and 3 day treatment group. A test compound was added to each plate in the treatment groups at concentrations of […] as tabulated in Table 1 (in 2 μl 1 of 100% DMSO, final DMSO concentration 1% in all wells). For NCI-H460 cells, test compounds were added to each plate in the treatment groups at concentrations of 600, 300, 100, 30, 10, 3, and 1 μM (in 2 μl of 100% DMSO, final DMSO concentration 1% in all wells). The cells in the 3 day treatment group were incubated for 3 days, followed by staining with AlamarBlue. In the Control group, AlamarBlue was added to the plate at (i) day 0 and (ii) day 3 and measured to establish the control reading. […] For the NCI-H460 cells, the capacity of the cells to proliferate was measured 5 hours after addition of AlamarBlue using the same fluorescence plate reader as stated above.

testes = experiment: 5 day systemic administration in male SH rats, testis; format: in vivo, rat; parameters: inhibition in vivo: dose or concentration left out as unconfirmed; details: for Testis shrinkage: male SH rats, oral daily for 5 days at 50 mg/ml, day 6; for inhibition in vivo: Rattus norvegicus, po, 144 h, read-out: Testis shrinkage
SH rat prostate = experiment: 5 day systemic administration in male SH rats, prostate; format: in vivo; parameters: inhibition in vivo: dose or concentration left out as unconfirmed; details: for Prostate shrinkage: male SH rats, oral daily for 5 days at 50 mg/ml, day 6; for inhibition in vivo: Rattus norvegicus, po, 144 h, read-out: Prostate shrinkage
Protocol: (§2) The effect of test compounds (lonidamine and lonidamine analogs) on the SH rat prostate was determined as follows. The test compound was orally administered daily for 5 days to male, SH rat, (n=6, 14 weeks old, Charles River Labs) at 50 mg/ml concentrations (as a 0.5% carboxymethylcellulose formulation). The control rats received an equal amount of the vehicle ([…]). Blood samples were collected 2 hours after administration on day 6, for pharmokinetic analysis of the compounds. On day 6 the rats were sacrificed and the entire prostate and the individual lobes (e.g., the ventral, dorso-lateral, and anterior lobes) were removed and weighed to measure absolute weights. Relative weights of prostate and individual lobes were calculated by dividing the absolute weight by the total body weight of the […]. Relative weights of the entire prostate, the dorsal prostate, and the ventral prostate were calculated by dividing the absolute weight by the total weight of the mouse. The histomorphology of the prostate was also analyzed and compared to that of the control or untreated prostate.

[1] = 5 day systemic administration in male SH rats, pharmacokinetic blood samples; format: in vivo, rat; details: oral daily for 5 days at 50 mg/ml, blood 2 hours after administration
Protocol: as §2

NCI-H460 cells = experiment: Antiproliferation assay 3 days, NCI-H460 cells; format: cell-based; details: read-out: NCI-H460 cell line IC50
Protocol: as §1

[2] = 3 day treatment, read-out: GI50 H460 cell 3 days
[3] = read-out: GI50 H460 cell 2 hr, 2 h treatment then 3 days incubation
[4] = Homo sapiens, NCI-H460, 72 h, 3 day treatment
[5] = Homo sapiens, PWR-1E, 72 h, 3 day treatment

Row | Compound | IC50 (PWR-1E cells; 3 day treatment) | IC50 (PWR-1E cells; Homo sapiens, PWR-1E, 72 h) | IC50 (NCI-H460 cells; Homo sapiens, NCI-H460, 72 h) | other results
1 | O=C(Nc1ccccn1)c1nn(Cc2ccc(Cl)cc2Cl)c2ccccc12 [Compound 7] | – | – | – | GI50 (H460 cells; [2]): 20 µM; GI50 (H460 cells; [3]): > 400 µM
2 | O=C(Nc1ccc(F)c(F)c1)c1nn(Cc2ccc(Cl)cc2Cl)c2ccccc12 [Compound 8] | > 3 µM | – | – | GI50 (H460 cells; [2]): 316 µM; GI50 (H460 cells; [3]): > 400 µM
3 | O=C(Nc1nccs1)c1nn(Cc2ccc(Cl)cc2Cl)c2ccccc12 [Compound 9] | > 100 µM | – | – | GI50 (H460 cells; [2]): > 400 µM; GI50 (H460 cells; [3]): > 400 µM
4 | O=C(NCCO)c1nn(Cc2ccc(Cl)cc2Cl)c2ccccc12 [Compound 10] | 14 µM | – | – | GI50 (H460 cells; [2]): 50 µM; GI50 (H460 cells; [3]): 78 µM
5 | O=C(OC1O[C@H](C(=O)O)[C@@H](O)[C@H](O)[C@H]1O)c1nn(Cc2ccc(Cl)cc2Cl)c2ccccc12 (some centres unmarked) [Compound 15] | – | 80 µM | – | GI50 (H460 cells; Homo sapiens, NCI-H460, 72 h, 3 day treatment, read-out: GI50 H460 cell 3 days): 316 µM; GI50 (H460 cells; Homo sapiens, NCI-H460, read-out: GI50 H460 cell 2 hr, 2 h treatment then 3 days incubation): > 400 µM
6 | O=C(O)c1nn(Cc2ccc(-c3ccccc3)cc2)c2ccccc12 [Compound 22] | 25 µM | – | – | GI50 (H460 cells; [2]): 158 µM; GI50 (H460 cells; [3]): > 400 µM
7 | NC(=O)c1nn(Cc2c(Cl)cccc2Cl)c2ccccc12 [Compound 25] | – | > 100 µM | – | –
8 | O=C(O)c1nn(Cc2ccccc2Cl)c2ccccc12 [Compound 27] | 30 µM | – | – | –
9 | CNC(=O)c1nn(Cc2c(Cl)cccc2Cl)c2ccccc12 [Compound 37] | 36 µM | – | – | –
10 | O=C(NCCN1CCOCC1)c1nn(Cc2c(Cl)cccc2Cl)c2ccccc12 [Compound 43] | 45 µM | – | – | –
11 | NNC(=O)c1nn(Cc2c(Cl)cccc2Cl)c2ccccc12 [Compound 44] | > 10 µM | – | – | –
12 | O=C(NC1CC1)c1nn(Cc2c(Cl)cccc2Cl)c2ccccc12 [Compound 46] | > 30 µM | – | – | –
13 | O=C(NO)c1nn(Cc2ccc(Cl)cc2Cl)c2ccc(F)cc12 [Compound 47] | 5.6 µM | – | – | –
14 | O=C(c1nn(Cc2ccc(Cl)cc2Cl)c2ccccc12)N1CCOCC1 [Compound 48] | > 10 µM | – | – | Testis shrinkage (testes): 4.3%; Prostate shrinkage (SH rat prostate): 3.3%
15 | CN(C)C(=O)c1nn(Cc2ccc(Cl)cc2Cl)c2ccccc12 [Compound 49] | > 100 µM | – | – | –
16 | CC(C)NC(=O)c1nn(Cc2ccccc2)c2ccccc12 [Compound 50] | 23 µM | – | – | –
17 | O=C(Nc1cccnc1)c1nn(Cc2ccc(Cl)cc2Cl)c2ccccc12 [Compound 51] | – | – | – | PK [1]: 0.45 µg/mL; Testis shrinkage (testes): 2.2%; Prostate shrinkage (SH rat prostate): 8.7%
18 | Cc1ccc2c(c1)c(C(=O)NO)nn2Cc1ccc(Cl)cc1Cl [Compound 52] | 0.34 µM | – | – | –
19 | CONC(=O)c1nn(Cc2ccc(Cl)cc2Cl)c2ccccc12 [Compound 53] | – | – | – | PK [1]: 1 µg/mL; Testis shrinkage (testes): 9.2%; Prostate shrinkage (SH rat prostate): 6.9%
20 | CONC(=O)c1nn(Cc2ccc(Cl)cc2Cl)c2ccc(C)cc12 [Compound 57] | 39 µM | – | – | –
21 | O=Cc1nn(Cc2ccc(Cl)cc2Cl)c2ccccc12 [Compound 61] | – | 1.5 µM | – | –
22 | CC(c1ccc(Cl)cc1Cl)n1nc(C(=O)O)c2ccccc21 (centres unmarked) [Compound 67] | – | 21 µM | 148 µM | inhibition in vivo (testes): 34.9%; inhibition in vivo (SH rat prostate): 18.2%
23 | O=C(O)c1nn(Cc2cc3c(cc2Cl)OCO3)c2ccccc12 [Compound 69] | – | 145 µM | – | –
24 | Cc1noc(C)c1Cn1nc(C(=O)O)c2ccccc21 [Compound 71] | – | > 300 µM | – | –

Row | Compound | IC50 (PWR-1E cells; 3 day treatment) | IC50 (PWR-1E cells; Homo sapiens, PWR-1E, 72 h) | IC50 (NCI-H460 cells; Homo sapiens, NCI-H460, 72 h) | other results
25 | COc1ccccc1Cn1nc(C(=O)O)c2ccccc21 [Compound 72] | – | 245 µM | – | –
26 | O=C(O)c1nn(Cc2ccc(Cl)nc2)c2ccccc12 [Compound 73] | – | > 300 µM | – | –
27 | O=C(O)c1nn(Cc2ccc3c(c2)OCO3)c2ccccc12 [Compound 74] | – | > 100 µM | 290 µM | –
28 | Cc1cc(Cn2nc(C(=O)O)c3ccccc32)n(C)n1 [Compound 75] | – | > 300 µM | > 180 µM | –
29 | O=C(O)c1nn(Cc2ccccc2O)c2ccccc12 [Compound 76] | – | 288 µM | – | –
30 | O=C(O)c1nn(Cc2ccc(O)cc2)c2ccccc12 [Compound 77] | – | > 100 µM | – | –
31 | O=C(O)c1cn(Cc2ccc(Cl)cc2Cl)c2ccccc12 [Compound 78] | – | 22 µM | 89 µM | inhibition in vivo (testes): 5.7%; inhibition in vivo (SH rat prostate): 10.1%
32 | O=C(O)c1nn(Cc2ccc(Cl)c(Cl)c2)c2ccccc12 [Compound 82] | – | 36 µM | 128 µM | inhibition in vivo (testes): -1.1%; inhibition in vivo (SH rat prostate): 5%
33 | O=C(O)c1nn(Cc2cc(Cl)ccc2Cl)c2ccccc12 [Compound 83] | – | 38 µM | 126 µM | inhibition in vivo (testes): 48%; inhibition in vivo (SH rat prostate): 31.7%
34 | O=C(O)c1nn(Cc2ccccn2)c2ccccc12 [Compound 84] | – | – | > 600 µM | –
35 | O=C(O)c1nn(Cc2cccnc2)c2ccccc12 [Compound 85] | – | – | > 600 µM | –
36 | O=C(O)c1nn(Cc2ccncc2)c2ccccc12 [Compound 86] | – | – | > 600 µM | –
37 | O=C(O)c1nn(Cc2cnc(Cl)c(Cl)c2)c2ccccc12 [Compound 87] | – | – | 323 µM | –
38 | O=Cc1nc(Cc2ccc(Cl)cc2Cl)n2ccccc12 [Compound 88] | – | – | – | IC50 (NCI-H460 cells; [4]): 48 µM; IC50 (PWR-1E cells; [5]): 12 µM
39 | O=C(O)c1nc(Cc2ccc(Cl)cc2Cl)n2ccccc12 [Compound 89] | 10 µM | – | – | IC50 (NCI-H460 cells; 3 day treatment): 41 µM
40 | OCc1nc(Cc2ccc(Cl)cc2Cl)n2ccccc12 [Compound 92] | – | – | – | IC50 (NCI-H460 cells; [4]): 43 µM; IC50 (PWR-1E cells; [5]): 11 µM
41 | O=C(O)c1nn(Cc2ccc(Cl)nc2)c2ccccc12 [Compound 94] | – | – | > 600 µM | –
42 | N#Cc1cc(Cl)ccc1Cn1nc(C(=O)O)c2ccccc21 [Compound 95] | – | 85 µM | 275 µM | –
43 | O=C(O)c1nn(C(=O)c2ccc(Cl)cc2Cl)c2ccccc12 [Compound 98] | – | – | – | IC50 (PWR-1E cells; [5]): 4 µM
44 | O=C(O)c1cn(Cc2cc(Cl)ccc2Cl)c2ccccc12 [Compound 100] | – | – | 125 µM | –
45 | O=C(O)c1nn(Cc2cc(Cl)ccc2F)c2ccccc12 [Compound 103] | – | 132 µM | 219 µM | –
46 | O=C(O)c1nn(S(=O)(=O)c2ccc(Cl)cc2Cl)c2ccccc12 [Compound 104] | 19 µM | – | – | IC50 (NCI-H460 cells; 3 day treatment): 195 µM
47 | O=C(O)c1c2ccccc2nn1S(=O)(=O)c1ccc(Cl)cc1Cl [Compound 105] | 21 µM | – | – | IC50 (NCI-H460 cells; 3 day treatment): 182 µM
48 | O=C(O)c1nn(Cc2cc(C(F)(F)F)ccc2Cl)c2ccccc12 [Compound 106] | – | – | 4 µM | –
